Measured values as given in article PMC7913927, “Leishmanicidal Activity of Betulin Derivatives in Leishmania amazonensis; Effect on Plasma and Mitochondrial Membrane Potential, and Macrophage Nitric Oxide and Superoxide Production” (Microorganisms, 2021).
Several values for one entry are separate records, joined by “and”; a condition that tells them apart may be missing. Identical values can stand only once. Like-named read-outs stand apart in the source and are kept apart here.

System: VE98MR intracellular amastigotes in J774.1 macrophages
Assay: Macrophage-amastigote model, patient isolate VE98MR
Type: cell-based, Leishmania amazonensis
Settings: for Regresion (GraphPad 6) of %Control vs dose (50% inhibitory concentration) / Growth (%) Exp1 %Control / Growth (%) Exp1 A/100MØ / Growth (%) Exp1 A/MØ / Growth (%) Exp1 Infección / Growth (%) Exp2 %Control / Growth (%) Exp2 A/100MØ / Growth (%) Exp2 A/MØ / Growth (%) Exp2 Infección / Growth (%) Exp3 %Control / Growth (%) Exp3 A/100MØ / Growth (%) Exp3 A/MØ / Growth (%) Exp3 Infección / Average A/100MØ: VE98MR; for Regresion (GraphPad 6) of %Control vs dose (50% inhibitory concentration): unit from Dose head; for Average A/100MØ: average of Exp1-3
Method: We used a previously described methodology, with some modifications. Macrophage monolayers, grown in RMPIc medium, for 3 days, were detached from the bottom of the culture chamber, by physical treatment (low temperature and light strokes). Obtained macrophages were seeded in flat-bottom 96-well culture plates, at a density of 2 × 10^5 cells mL^−1 (40,000 macrophages/well), in a final volume of 200 µL. Plates were incubated for 2 h, and the supernatant was discarded to remove non-adhered macrophages. Medium was replaced with stationary-phase promastigotes suspended in 200 µL of RPMIc (2 × 10^6 parasites mL^−1, 400,000 parasites/well), at a macrophage: parasite ratio 1:10 [40]. The plates were incubated for 4 h. Afterwards the medium was replaced with fresh RPMIc and increasing concentrations of compounds or drugs tested were applied, in volumes of 2 µL, according to the different treatment groups. Plates were kept for 72 h, at 37 °C and 5% CO2. The medium was discarded and the wells were washed twice with PBS. Next, a Giemsa staining was performed in situ. It consisted of adding 200 µL of methanol/well, incubating for 5 min, discarding the fixative, and letting it dry at room temperature. Later, the Giemsa solution (10% in PBS w/v, 200 µL/well) was added, incubated for 10 min, and washed with PBS, allowing it to dry. Finally, the bottom of the plates was detached by percussion and the circular bottoms (wells) were fixed to slides with Permount synthetic resin, for later evaluation (Alcazar W., manuscript in preparation). Cell counting was performed with a 100× immersion objective. A minimum of 200 random macrophages were examined. The percentage of infected macrophages (% infection) and the average number of amastigotes present in infected macrophages (amastigotes) were determined. […] The infection rate represents the number of intracellular amastigotes per 100 macrophages evaluated. Additionally, the GI50 for the decrease in the infection rate was calculated. At least three independent experiments were performed. The effect of amphotericin-B (AmB) [Sigma-Aldrich, (St. Louis, MO, USA)] was included as positive control of the assay.

C=C(C)C1CCC2(C=NO)CCC3(C)C(CCC4C5(C)CCC(=NO)C(C)(C)C5CCC43C)C12 (stereo not shown) [Compound 18]
SI (CC50/GI50) VE98MR (J774.1 CC50 / intracellular amastigote GI50, Table 2): 27.32 | GI50 (VE98MR intracellular amastigotes, read-out: GI50 (µM) Experiment 1 Regresion): 0.65 µM | GI50 (VE98MR intracellular amastigotes, read-out: GI50 (µM) Experiment 2 Regresion): 1.09 µM | GI50 (VE98MR intracellular amastigotes, read-out: GI50 (µM) Experiment 3 Regresion): 0.89 µM | Regresion (GraphPad 6) of %Control vs dose (50% inhibitory concentration) (Exp1): 0.65 µM | Regresion (GraphPad 6) of %Control vs dose (50% inhibitory concentration) (Exp2): 1.09 µM | Regresion (GraphPad 6) of %Control vs dose (50% inhibitory concentration) (Exp3): 0.89 µM | Growth (%) Exp1 %Control (dose 0.10 µM, Exp1): 72.90% | Growth (%) Exp1 A/100MØ (dose 0.10 µM, Exp1): 117.33 | Growth (%) Exp1 A/MØ (dose 0.10 µM, Exp1): 2.20 | Growth (%) Exp1 Infección (dose 0.10 µM, Exp1): 53.33% | Growth (%) Exp2 %Control (dose 0.10 µM, Exp2): 77.33% | Growth (%) Exp2 A/100MØ (dose 0.10 µM, Exp2): 159.61 | Growth (%) Exp2 A/MØ (dose 0.10 µM, Exp2): 2.67 | Growth (%) Exp2 Infección (dose 0.10 µM, Exp2): 59.78% | Growth (%) Exp3 %Control (dose 0.10 µM, Exp3): 82.84% | Growth (%) Exp3 A/100MØ (dose 0.10 µM, Exp3): 205.27 | Growth (%) Exp3 A/MØ (dose 0.10 µM, Exp3): 3.68 | Growth (%) Exp3 Infección (dose 0.10 µM, Exp3): 55.78% | Average A/100MØ (dose 0.10 µM): 160.74 | Growth (%) Exp1 %Control (dose 0.50 µM, Exp1): 57.32% | Growth (%) Exp1 A/100MØ (dose 0.50 µM, Exp1): 92.25 | Growth (%) Exp1 A/MØ (dose 0.50 µM, Exp1): 2.05 | Growth (%) Exp1 Infección (dose 0.50 µM, Exp1): 45.00% | Growth (%) Exp2 %Control (dose 0.50 µM, Exp2): 61.05% | Growth (%) Exp2 A/100MØ (dose 0.50 µM, Exp2): 125.99 | Growth (%) Exp2 A/MØ (dose 0.50 µM, Exp2): 2.20 | Growth (%) Exp2 Infección (dose 0.50 µM, Exp2): 57.27% | Growth (%) Exp3 %Control (dose 0.50 µM, Exp3): 73.43% | Growth (%) Exp3 A/100MØ (dose 0.50 µM, Exp3): 181.96 | Growth (%) Exp3 A/MØ (dose 0.50 µM, Exp3): 3.24 | Growth (%) Exp3 Infección (dose 0.50 µM, Exp3): 56.16% | Average A/100MØ (dose 0.50 µM): 133.40 | Growth (%) Exp1 %Control (dose 1.00 µM, Exp1): 48.73% | Growth (%) Exp1 A/100MØ (dose 1.00 µM, Exp1): 78.42 | Growth (%) Exp1 A/MØ (dose 1.00 µM, Exp1): 2.26 | Growth (%) Exp1 Infección (dose 1.00 µM, Exp1): 34.70% | Growth (%) Exp2 %Control (dose 1.00 µM, Exp2): 59.91% | Growth (%) Exp2 A/100MØ (dose 1.00 µM, Exp2): 123.65 | Growth (%) Exp2 A/MØ (dose 1.00 µM, Exp2): 2.80 | Growth (%) Exp2 Infección (dose 1.00 µM, Exp2): 44.16% | Growth (%) Exp3 %Control (dose 1.00 µM, Exp3): 42.96% | Growth (%) Exp3 A/100MØ (dose 1.00 µM, Exp3): 106.46 | Growth (%) Exp3 A/MØ (dose 1.00 µM, Exp3): 2.36 | Growth (%) Exp3 Infección (dose 1.00 µM, Exp3): 45.11% | Average A/100MØ (dose 1.00 µM): 102.84 | Growth (%) Exp1 %Control (dose 5.00 µM, Exp1): 16.08% | Growth (%) Exp1 A/100MØ (dose 5.00 µM, Exp1): 25.87 | Growth (%) Exp1 A/MØ (dose 5.00 µM, Exp1): 1.60 | Growth (%) Exp1 Infección (dose 5.00 µM, Exp1): 16.17% | Growth (%) Exp2 %Control (dose 5.00 µM, Exp2): 28.34% | Growth (%) Exp2 A/100MØ (dose 5.00 µM, Exp2): 58.49 | Growth (%) Exp2 A/MØ (dose 5.00 µM, Exp2): 2.35 | Growth (%) Exp2 Infección (dose 5.00 µM, Exp2): 24.89% | Growth (%) Exp3 %Control (dose 5.00 µM, Exp3): 8.53% | Growth (%) Exp3 A/100MØ (dose 5.00 µM, Exp3): 21.14 | Growth (%) Exp3 A/MØ (dose 5.00 µM, Exp3): 1.13 | Growth (%) Exp3 Infección (dose 5.00 µM, Exp3): 18.71% | Average A/100MØ (dose 5.00 µM): 35.17 | Growth (%) Exp1 %Control (dose 10.00 µM, Exp1): 3.99% | Growth (%) Exp1 A/100MØ (dose 10.00 µM, Exp1): 6.42 | Growth (%) Exp1 A/MØ (dose 10.00 µM, Exp1): 1.33 | Growth (%) Exp1 Infección (dose 10.00 µM, Exp1): 4.83% | Growth (%) Exp2 %Control (dose 10.00 µM, Exp2): 9.85% | Growth (%) Exp2 A/100MØ (dose 10.00 µM, Exp2): 20.33 | Growth (%) Exp2 A/MØ (dose 10.00 µM, Exp2): 1.50 | Growth (%) Exp2 Infección (dose 10.00 µM, Exp2): 13.55% | Growth (%) Exp3 %Control (dose 10.00 µM, Exp3): 11.25% | Growth (%) Exp3 A/100MØ (dose 10.00 µM, Exp3): 27.88 | Growth (%) Exp3 A/MØ (dose 10.00 µM, Exp3): 1.35 | Growth (%) Exp3 Infección (dose 10.00 µM, Exp3): 20.65% | Average A/100MØ (dose 10.00 µM): 18.21 | GI50 (intracellular amastigotes, Supplementary Materials II, read-out: GI50 (µM) VE98MR, mean of three experiments): 0.877 µM and 0.88 µM
